Results from PubChem BioAssay (NCI).
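Tested at 5 concentrations; 48 h exposure; 96-well plates; endpoints linearly interpolated, else capped at highest concentration. GI50: concentration for 50% inhibition of growth. TGI: total growth inhibition.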

Columns and labels:
Assay in all cases: NCI anticancer screen, dose series, 48 h
[1] = tested on: HOP-62 NSCLC
[2] = tested on: MOLT-4 leukemia
[3] = tested on: ACHN renal
[4] = tested on: KM12 colon
[5] = tested on: LOX IMVI melanoma
[6] = tested on: SF-295 CNS
[7] = tested on: SK-MEL-5 melanoma
[8] = tested on: SNB-75 CNS

Row | Compound | GI50 [1] | TGI [1] | GI50 [2] | TGI [2] | GI50 [3] | TGI [3] | GI50 [4] | TGI [4] | GI50 [5] | TGI [5] | GI50 [6] | TGI [6] | GI50 [7] | TGI [7] | GI50 [8] | TGI [8]
1 | NS(=O)(=O)c1ccc(N(/C=C/C(=O)C(F)(F)F)CC(=O)c2ccc(Cl)cc2)cc1 | 33 µM | > 100 µM | 32.9 µM | 89.9 µM | 30.4 µM | 91.4 µM | 24.2 µM | 73.7 µM | 31.2 µM | 98.9 µM | 26.2 µM | 74.4 µM | 38.9 µM | > 100 µM |  | 
2 | Nc1c(C(=O)Nc2cccc(Br)c2)sc2nc3c(cc12)C(=O)CCC3 | 1.41 µM | > 100 µM | 18.5 µM | > 100 µM | 15.7 µM | > 100 µM | 0.349 µM | > 100 µM |  |  | 0.455 µM | > 59.7 µM | 0.4 µM | > 100 µM | 0.486 µM | > 52.2 µM
3 | COc1ccc(NC(=O)/C(N=O)=C(/C)O)cc1 |  | > 100 µM |  | > 100 µM |  | > 100 µM |  | > 100 µM |  | 47.9 µM |  | > 100 µM |  | > 100 µM |  | > 100 µM
4 | C=CCc1cccc(/C=N/NC(=O)CN2CCN(Cc3ccccc3)CC2)c1O | 2.25 µM | 13.8 µM | 1.12 µM | 5.64 µM | 1.54 µM | 12 µM | 2.56 µM | 15 µM | 1.05 µM | 6.59 µM | 0.649 µM | 4.04 µM | 1.26 µM | 3.53 µM | 2.57 µM | 12.9 µM
5 | CCOC(=O)C(=Cc1cccc(Cl)c1)C(=O)OCC | 2.69 µM | 7.58 µM | 3.08 µM | 9.81 µM | 1.89 µM | 4.23 µM | 2.35 µM | 5.8 µM | 1.65 µM | 3.12 µM | 3.61 µM | 13.4 µM | 1.83 µM | 3.35 µM | 2.12 µM | 7.8 µM
6 | COC12C=C/C(=C(/C(=O)OCc3ccncc3)C(=O)CCCCCCCCC3(OC)C=C/C(=C(/C(=O)OCc4ccncc4)C(=O)CCCCCCCC1)O3)O2 | 1.18 µM | 5.59 µM | 0.172 µM | 1.85 µM | 0.217 µM | 1.14 µM | 0.78 µM | 1.78 µM | 0.107 µM | 0.264 µM | 0.899 µM | 3.29 µM | 0.247 µM | 0.867 µM | 0.779 µM | 1.97 µM
7 | Cn1cnc([N+](=O)[O-])c1S(=O)(=O)Oc1ccccc1 | 19.3 µM | 39 µM | 3.65 µM | 18.9 µM | 1.8 µM | 3.37 µM | 26.2 µM | > 78.4 µM | 3.3 µM | 9.9 µM | 29.9 µM | > 73 µM | 17.3 µM | 34.2 µM | 14.9 µM | 34.9 µM
8 | COC1[C@@H](OC(C)=O)[C@@H](NC(=O)C(Cl)(Cl)Cl)C(I)[C@@H](N2C(=O)c3ccccc3C2=O)[C@H]1OC (stereo partly specified) |  | > 100 µM |  | > 100 µM |  | > 100 µM |  | > 100 µM |  | > 100 µM |  | > 100 µM |  | > 100 µM |  | > 100 µM
9 | Cc1nc2ccccc2nc1-c1ccc(N=[N+]([O-])c2ccc(-c3nc4ccccc4nc3C)cc2)cc1 |  | > 81.8 µM |  | > 100 µM |  | > 100 µM |  | > 100 µM |  | > 100 µM |  | > 100 µM |  | > 100 µM |  | 46 µM
